The source of these data is ChEMBL document CHEMBL1157539, “Thousands of chemical starting points for antimalarial lead identification” (Nature, 2010).

The subject of this assay is Plasmodium falciparum. The assay can be described thus: GSK_TCMDC: Inhibition of Plasmodium falciparum 3D7 in whole erythrocytes, using parasite LDH activity as an index of growth. The assay is classed as functional, organism-based. To be noted: Plasmodium falciparum, 3D7.

In turn, `COc1ccc2nccc([C@@H](O)CN3CCC(NCc4nc5c(OCc6ccccc6)cccc5[nH]4)CC3)c2c1` returned an XC50 of 178 nM.

The molecule `CC(=NNC(S)=NC(C)(C)C)c1ccccn1` registered an XC50 of 158 nM.

With `COc1cc(Br)c(S(=O)(=O)n2cc(CN3CCC(N)CC3)c3cc(Cl)ccc32)cc1OC`, the XC50 came to 985 nM.

For the molecule `O=C(Nc1cccc(CN2CCCN(Cc3ncc[nH]3)CC2)c1)c1ccc2ccccc2c1`, the XC50 was determined as 632 nM.

Take `COC(=O)C1=C(C)NC2=C(C(=O)CC(c3ccc(OC)c(OC)c3)C2)C1c1cccc(O)c1` (stereo not drawn): the XC50 worked out at 729 nM.

In turn, `COc1ccc(-c2cccc(NC(=O)c3cccc(C#N)c3)c2)cc1CN(C)CCN(C)C` displayed an XC50 of 314 nM.

On to `CCCCNCCOc1ccc(-c2nc(-c3ccccc3)c(-c3ccccc3)[nH]2)cc1`, for which the XC50 came to 679 nM.

For `NC(=O)C1CCN(Cc2cccc(-c3cccc(-c4nc5cc(C(F)(F)F)ccc5[nH]4)c3)c2)CC1`, the XC50 came out at 641 nM.

`O=C(NCC1CCN(Cc2cccc(C(F)(F)F)c2)C1)c1cc(-c2cccc(C(F)(F)F)c2)cs1` (stereo not drawn) came in with an XC50 of 608 nM.

Take `O=C(c1ccc(-c2cccc(-c3nc4cc(F)ccc4[nH]3)c2)cc1)N1CCCCC1CN1CCC(O)C1` (stereo not drawn): the XC50 came to 1400 nM.

`N#Cc1ccc(N2CCN(Cc3cccc(-c4ccc(-c5nc6cc(C(F)(F)F)ccc6[nH]5)s4)c3)CC2)nc1`: the XC50 came out at 1040 nM.

Regarding `CN(C)CCNc1cc(-c2ccc3ccccc3c2)nc2ccccc12`, the XC50 came to 350 nM.

Turning to `Cc1cccc2nc(-c3cccc(-c4ccc(NC(=O)CN5CCN(C)CC5)cc4)c3)[nH]c12`, the XC50 was 562 nM.

As for `CCCCCN1CCCC(CNS(=O)(=O)c2cccc(C(=O)Nc3ccc(C(F)(F)F)cc3)c2)C1` (stereo not drawn), the XC50 is 829 nM.

`CCCC(=O)NC(c1ccc(C(C)C)cc1)c1ccc2cccnc2c1O` (stereo not drawn): the XC50 was 934 nM.

Molecule `CS(=O)(=O)c1ccc(CNCc2ccc(-c3cccc(-c4nc5cc(F)ccc5[nH]4)c3)cc2)cc1` returned an XC50 of 315 nM.

`Nc1ncc(-c2ccc(Cl)c(Cl)c2)c(N)n1` came in with an XC50 of 727 nM.

In the case of `CCSc1nc2sc3c(c2c(=O)n1-c1ccccc1)CCN(C)C3`, the XC50 was found to be 457 nM.

The molecule `Cc1cc(NC2CCN(Cc3ccccc3)CC2)nc(NCCCCc2ccccc2)n1` registered an XC50 of 383 nM.

`Oc1cccc(-c2nc3cc(C4=NC5CCCCC5N4)ccc3[nH]2)c1` (stereo not drawn): the XC50 was 592 nM.

In turn, `N#Cc1ccc(N2CCN(Cc3cccc(-c4ccc(-c5nc6ccccc6[nH]5)cc4)c3)CC2)nc1` displayed an XC50 of 1240 nM.

Molecule `CN(C)CCNC(=O)c1cc2c(-c3ccc(Cl)cc3)nn(C)c2s1` showed an XC50 of 665 nM.

In turn, `C#CCNCc1ccc(-c2cccc(-c3nc4cccc(C)c4[nH]3)c2)cc1` yielded an XC50 of 818 nM.

With `CN(C)CCCOc1ccc(CCNCc2cccc(Oc3ccc(Cl)cc3)c2)cc1`, the XC50 stood at 887 nM.

As for `O=C1COc2ccc(CNC3CCC(O)(CCc4ccnc5cc6c(cc45)OCCO6)CC3)nc2N1` (stereo not drawn), the XC50 worked out at 931 nM.

On to `COc1ccccc1CCNc1nc(C)cc(N[C@@H](Cc2ccccc2)C(=O)Nc2ccccc2)n1`, for which the XC50 stood at 1020 nM.

On to `O=C(/C=C/c1ccc(Cl)c(Cl)c1)NCC1CCCC(CN2CCC(c3c[nH]c4ccccc34)CC2)C1` (stereo not drawn), for which the XC50 is 726 nM.

Regarding `Cc1cccc2nc(-c3cccc(-c4cccc(NC(=O)Nc5ccc(F)c(F)c5F)c4)c3)[nH]c12`, the XC50 came out at 108 nM.

Turning to `O=C1OC2(CCN(C(=O)c3ccc(-n4cnnn4)cc3)CC2)CN1Cc1ccc(Cl)c(Cl)c1`, the XC50 was 715 nM.

`NC1=NC2(CCCCC2)N(OCCCCCCC2CCCCC2)C(N)=N1` registered an XC50 of 356 nM.

The molecule `COc1c(C2CCN(CCCCNC(=O)c3ccc(-c4ccc(NC(=O)C(F)(F)F)cc4)cc3)CC2)ccc2c1CCCC2` gave an XC50 of 1000 nM.

For `Cc1cc(=NN=CC=Cc2ccccc2)c2cc(F)ccc2[nH]1`, the XC50 amounted to 734 nM.

`c1ccc(COc2ccc(Nc3ncnc4ccc(-c5ccc(CN6CCSCC6)o5)cc34)cc2)cc1` had an XC50 of 827 nM.

Molecule `Cc1nc2c(=O)sc3ccccc3c2n1Cc1ccccc1` gave an XC50 of 881 nM.

`O=C(NC1CC1)c1ccc(N2CCCC(COc3ccc4c(c3)CCCC4)C2)nc1` (stereo not drawn) yielded an XC50 of 1080 nM.

`CNC(=O)C1Cc2c([nH]c3cc(Br)ccc23)C2(CCN(CCc3ccccc3)CC2)N1` (stereo not drawn) displayed an XC50 of 721 nM.

`Cc1cc(Oc2ccc(-n3ccnc3)cc2)nc(N2CCN(CCCN3CCCC3)CC2)n1`: the XC50 turned out to be 928 nM.

`O=C(Cn1c(SCc2cccc(F)c2F)cc(=O)c2ccccc21)N(CCc1c[nH]cn1)Cc1ccc(-c2ccc(C(F)(F)F)cc2)cc1` returned an XC50 of 801 nM.

As for `Cc1ccc(CC(C)NCC(O)c2cccc(C(F)(F)F)c2)c(C)c1` (stereo not drawn), the XC50 stood at 703 nM.

For `Cc1cc(NC(=O)Nc2ccc3ncccc3c2)c2ccccc2n1`, the XC50 worked out at 956 nM.

`CC1CCC2(CC1)NC(N)=NC(=N)N2OCCCCCCCCO` (stereo not drawn) yielded an XC50 of 147 nM.

`COc1ccc2ncc(F)c(CCN3CC(O)C(CNCc4ccc5oc(=O)ccc5c4)C3)c2n1` (stereo not drawn) came in with an XC50 of 949 nM.

For `Cc1cc(N[C@@H](Cc2ccccc2)C(=O)NCc2cccc(F)c2)nc(NCCc2ccccc2)n1`, the XC50 stood at 1020 nM.

On to `Nc1nc(N)c2c3c(cnc2n1)CCCC3`, for which the XC50 was determined as 770 nM.

For `CC1(C)NC(N)=NC(=N)N1OCc1cccs1`, the XC50 worked out at 3.2 nM.

As to `Oc1cccc(Nc2nc(NCc3ccccc3)c3ccccc3n2)c1`, the XC50 was 41.3 nM.

`CCCc1cc(N2CCC(N3CCCC3)CC2)nc(Nc2ccc(Cl)cc2)n1` gave an XC50 of 765 nM.

`CS(=O)(=O)CCNCc1nc(-c2ccc3ncnc(Nc4ccc(OCc5ccccc5)c(Cl)c4)c3c2)cs1` showed an XC50 of 802 nM.

Molecule `O=C(c1cc(-c2cccs2)n[nH]1)N1CCN(S(=O)(=O)c2ccc(Cl)s2)CC1` came in with an XC50 of 868 nM.

For the molecule `COc1ccc2nccc([C@@H](O)CN3CCC(NCCOc4cccc(C(F)(F)F)c4)CC3)c2c1`, the XC50 worked out at 159 nM.

With `CCCc1cc(C)ccc1OCCCON1C(NC(=O)OCC)=NC(NC(=O)OCC)=NC1(C)C`, the XC50 is 35.9 nM.

In the case of `CC(=O)Nc1cccc(C(=O)Nc2cccc(-c3ccc(-c4nc5cccc(C)c5[nH]4)s3)c2)c1`, the XC50 came to 767 nM.

Take `COc1ccc(-c2c(-c3ccc(OCc4ccccc4)cc3O)n[nH]c2C(F)(F)F)cc1`: the XC50 turned out to be 1170 nM.

`CO/C(=C\C=C\c1cc2cc(Cl)c(Cl)cc2[nH]1)C(=O)NC1CCN(CCNc2ccccc2)CC1` showed an XC50 of 258 nM.

For `CCC1(C)CC(CCNCc2ccccc2O)(c2ccccc2OC)CCO1` (stereo not drawn), the XC50 was found to be 721 nM.

`CCN(CC)/C(=N/C(=N)Nc1ccc(Cl)c(Cl)c1)NCCCCCCN/C(=N\C(=N)Nc1ccc(Cl)c(Cl)c1)N(CC)CC` displayed an XC50 of 761 nM.

`Oc1ccc(CCNCCCCCCNCCc2ccc(Br)cc2)cc1O` had an XC50 of 1020 nM.

In turn, `Cc1cc(C(=O)Nc2ccc(C)c(-c3nc(N(C(=O)c4ccc(F)c(C)c4)C4CCNCC4)nc4c3ccc(=O)n4-c3c(F)cccc3F)c2)ccc1F` displayed an XC50 of 319 nM.

For `CCCCSc1ccc2nc(-c3c[nH]c4ccc(C#N)cc34)cn2c1`, the XC50 came out at 948 nM.

For `Cc1cc(N)c2cc(NC(=O)/C=C/c3ccccc3Cl)ccc2n1`, the XC50 worked out at 405 nM.

Regarding `COc1ccccc1NC(=O)NC1CCN(CCCCCNC(=O)/C=C/c2ccc(Cl)c(Cl)c2)CC1`, the XC50 was determined as 746 nM.

For the molecule `CN1CCC(Oc2ccc(CN3CC[C@H](NC(=O)c4ccc(Cl)c(Cl)c4)C3)c3ccccc23)C1` (stereo partly drawn), the XC50 turned out to be 876 nM.

`CCCCCCCCCCS(=O)(=O)N[C@H](COCc1cccc(Oc2ccccc2)c1)COP(=O)(O)OC` returned an XC50 of 1020 nM.

`CCOc1ccc(C(C)NC(=O)c2ccc(OC)c(Br)c2)cc1OCC` (stereo not drawn) showed an XC50 of 706 nM.

In turn, `COc1ccc(-c2cnn3ccc(Nc4cc(OC)c(OC)c(OC)c4)nc23)cc1OC` came in with an XC50 of 650 nM.

In the case of `N=C(Cc1ccc(Cl)cc1)NCCN1CCCCCC1`, the XC50 amounted to 742 nM.

The molecule `O=C(COC(=O)c1cccc(S(=O)(=O)N2CCc3ccccc32)c1)NNC(=O)c1cccs1` had an XC50 of 1250 nM.

Turning to `CO/C(=C\C=C\c1cc2cc(Cl)c(Cl)cc2[nH]1)C(=O)NC1CC(C)N(C)C(C)C1` (stereo not drawn), the XC50 amounted to 902 nM.

For the molecule `c1ccc(-c2cc(NCCCCNc3cc(-c4ccccc4)nc4ccccc34)c3ccccc3n2)cc1`, the XC50 turned out to be 133 nM.

Consider `COc1cccc(CNc2ncc(-c3ccsc3)c(-c3nccs3)n2)c1`, for which the XC50 is 422 nM.

`N#Cc1cccc(C(O)C2CN(CCC3CCCCC3)CCC2(O)c2ccccc2)c1` (stereo not drawn) displayed an XC50 of 129 nM.

The molecule `COc1cc2nc(NCCn3nc(C)cc3C)nc(NCCc3ccccc3)c2cc1OC` gave an XC50 of 436 nM.

As for `COc1ccc(Nc2cc(C)c3cc(NC(=O)c4ccncc4)ccc3n2)cc1`, the XC50 was determined as 908 nM.

The molecule `Cc1cc(NC2CCN(CC3CCCCC3)C2)nc(Nc2ccc(Cl)cc2)n1` (stereo not drawn) registered an XC50 of 404 nM.

With `CCCc1cc2c3c(N)nc(N)nc3ccc2n1C(CC)CC`, the XC50 amounted to 3.2 nM.

Consider `CN(C)CCN(C)C(=O)c1cc(-c2ccncc2)c(-c2ccc(Cl)c(O)c2)o1`, for which the XC50 is 1050 nM.

On to `Cc1cc(N2CCCN(C)CC2)nc(Nc2ccc(Br)cc2)n1`, for which the XC50 was 723 nM.

In the case of `COc1cc(N)c(Cl)cc1C(=O)NCC1CCN(c2nc(C)cc(C)n2)CC1`, the XC50 turned out to be 509 nM.

`Nc1c2ccccc2nc2cc(Cl)ccc12` yielded an XC50 of 715 nM.

`O=C(NCCN1CCCCC1)c1ccc(CNC(=O)c2ccc(O)c(-c3cccc(C(F)(F)F)c3)c2)cc1` had an XC50 of 886 nM.

The molecule `O=C(Nc1ccc2oc(-c3ccc(Cl)cc3Cl)nc2c1)c1ccc([N+](=O)[O-])o1` showed an XC50 of 1100 nM.

In turn, `CC1CN(c2cnn(Cc3cccc(NC(=O)Nc4ccc(-c5ccccc5)cc4)c3)c(=O)c2Cl)CC(C)N1` (stereo not drawn) yielded an XC50 of 340 nM.

Regarding `C#CCN1CCC2=C(C1)c1c(O)cc(C(C)C(C)CCc3ccc(F)cc3)cc1OC2(C)C` (stereo not drawn), the XC50 was determined as 175 nM.

Consider `O=C(Nc1ccc2nccc(N3CCN4CCC[C@H]4C3)c2c1)c1ccc(Cl)c(Cl)c1`, for which the XC50 was 340 nM.

For the molecule `COc1ccc(CNCc2cccc(-c3ccc(-c4nc5cccc(C)c5[nH]4)s3)c2)cc1`, the XC50 was found to be 263 nM.

Turning to `O=C(Nc1ccc(Cl)cc1)c1ccc(CN2CCCN(CC3CCCCC3)CC2)cc1`, the XC50 amounted to 220 nM.

For `COc1cc(F)c2ncc(Cl)c(CCN3CCC(NCc4ccc5c(n4)NC(=O)CO5)CC3)c2c1`, the XC50 came out at 504 nM.

`CC(=O)Nc1cccc(C(=O)Nc2cccc(-c3ccc(-c4nc5cc(F)ccc5[nH]4)cc3)c2)c1` displayed an XC50 of 764 nM.
